Test results taken from patent US20030124084A1, “Use of dehydroepiandrosterone and/or precursors or derivatives thereof to improve papery aspect of the skin” (priority 2000, published 2003).

Legend:
Assay type in all cases: in vivo, human
skin of the face [1] = experiment: Clinical scores of texture and flaccidness of the skin of the face
Protocol: (§1) This test was performed simultaneously with the one described in example 2, by applying the same products, onto the same groups of individuals, and under the same conditions, except that the products were applied to the skin of the face.
The texture of the skin and the flaccidness were assessed under blind conditions by the same clinician and are represented by clinical scores ranging from 0 (unpronounced or relatively unpronounced parameter) to 9 (very pronounced parameter).
(§2) The statistical analysis was performed by Wilcoxon tests.

[2] = tested on: weathered appearance of the skin; experiment: Clinical score of the weathered appearance of the skin, back of the hand, treated hand vs control hand
Protocol: A gelled oil-in-water emulsion containing 1% by weight of DHEA as sole active agent was tested in comparison with a vehicle consisting of an identical emulsion but not containing DHEA.
The products were tested on a group of forty women aged from 55 to 70. Half of the individuals applied the vehicle and the other half applied the DHEA-based emulsion, the choice of the individuals being made according to a computer-generated randomization. The emulsion was applied in the morning and in the evening for four months to the back of only one hand, the other hand serving as a control. The amounts applied were controlled by weighing the tubes at the start and end of the test.
The weathered appearance is assessed clinically under blind conditions on the back of each hand, at the start of the test and after four months, by the same clinician. The weathered appearance is represented by a clinical score ranging from 0 (weathered appearance absent or relatively unpronounced) to 9 (very pronounced weathered appearance).
The statistical analysis is performed by Wilcoxon tests.

skin of the face [3] = experiment: Elasticity of the skin by Dermal Torque Meter
Protocol: as §1
The elasticity of the skin was assessed, at the start of the test and after four months, using the apparatus available under the tradename Dermal Torque Meter® from DTM® Dia-Stron Limited, Andover, Hampshire, United Kingdom. This apparatus makes it possible to study the response of the skin to a deformation applied in the direction parallel to its surface, as described in Escoffier C et al., Age-Related Mechanical Properties of Human Skin: an in Vivo Study, J. Invest. Dermatol., 1989, 93:353-357.
as §2

[4] = after four months, 1% DHEA emulsion topical on face, score 0 to 9
[5] = four months vs placebo, Wilcoxon test
[6] = start of test, face, score 0 to 9

C[C@]12CC[C@H](O)CC1=CC[C@@H]1[C@@H]2CC[C@]2(C)C(=O)CC[C@@H]12 [DHEA, dehydroepiandrosterone]
Flaccidness clinical score, T4 (skin of the face [1]; [4]): 4.15
Texture clinical score, T4 (skin of the face [1]; [4]): 3.8
effect of topical application on flaccidness of the skin (skin of the face [1]; [5]): does not significantly modify
effect of topical application on texture of the skin (skin of the face [1]; [5]): does not significantly modify
Flaccidness clinical score, T0 (skin of the face [1]; [6]): 4.45
Texture clinical score, T0 (skin of the face [1]; [6]): 4
score for the weathered appearance on the treated hand vs control hand ([2]; after four months, 1% DHEA emulsion topical morning and evening on back of one hand, score 0 to 9, significant at p=0.05): lower
difference in scores of the weathered appearance between the two hands ([2]; initial time (To), clinical score 0 to 9, women aged 55 to 70): virtually nonexistent
Elasticity, T4 (skin of the face [3]; after four months, 1% DHEA emulsion topical on face, Dermal Torque Meter): 0.66
effect of topical application on elasticity of the skin (skin of the face [3]; [5]): does not significantly modify
Elasticity, T0 (skin of the face [3]; start of test, face, Dermal Torque Meter): 0.77
